How the values were obtained:
[1] = system: PDGF-R; assay: PDGF-BB-stimulated PDGF-R autophosphorylation, C6 cells, western blot; format: cell-based, rat; design: PDGF stimulated receptor phosphorylation: dose or concentration left out as unconfirmed
Procedure: For western blotting, cells were plated in 2 mL growth medium into 6-well dishes (500,000 cells per well) and allowed to attach overnight. The medium was replaced with 2 mL MCDB 105 (UCSF Cell Culture Facility) supplemented with 1% FBS. The plates were then incubated overnight at 37° C., ambient CO2. […] After a 7 min incubation at room temperature with ligand, the plates were put on ice and washed three times with 1 mL ice-cold PBS plus 1 mM orthovanadate. Lysis was achieved by pipetting cells in 0.5 mL of buffer containing 50 mM Tris, pH 7.4, 10% glycerol, 1% NP-40, 2 mM EDTA, 1 mM sodium vanadate (Na3 VO4), 10 mM pyrophosphate, 1 mM PMSF, 10 mg/mL aprotinin, 10 mg/mL leupeptin. […] The integrity of the protein-to-membrane transfer was determined by staining with 1% Ponceau S in 5% acetic acid for 5 min. […] Phosphotyresine was detected by incubating the membrane (1 hr at room temperature) with an anti-phosphotyosine antiserum diluted in blocking buffer at 1:3000. […]
Proteins were then separated by SDS-polyacrylamide gel electrophoresis (PAGE). […] The level of phosphorylated tyrosine was determined by quantitating the amount of bound anti-phosphotyrosine. Quantitation was carried out by peak area integration using a Molecular Dynamics Computing Densitometer (Model 300S), and Image Quant v3.0 software (Molecule Dynamics). […]

[2] = system: T98G cells; assay: PDGF-stimulated DNA synthesis, T98G cells (3H-thymidine); format: cell-based, human; settings: 50 ng/ml PDGF-BB
Procedure: T98G cells in log phase growth were transferred to 96-well dishes at 20,000 cells in 200 μL of serum-containing growth medium. After an overnight attachment period, the monolayers were washed twice with 200 μL MCDB 105 medium and the cells were cultured in 200 μL serum-free MCDB 105 medium for 24 hr. […] The plates were incubated at 37° C. at ambient CO2 for approximately 18 hr. ^3 H-thymidine (Amersham, 5 Ci/mmol) was added to each well to yield a final concentration of 5 μCi/mL and the plates were returned to 37° C. incubator. After 4 hr the medium was removed, the plates were put onto ice, and washed twice with 200 μL ice-cold PBS per well. Radioactivity incorporated into DNA was separated from unincorporated ^3 H-thymidine by precipitation with 100 μL ice-cold TCA for 10 min on ice. […] Six mL of cocktail (Ready Safe, Beckman) was added and radioactivity quantified in a Beckman liquid scintillation counter model LS6000SC. […]
The effect on basal ^3 H-thymidine incorporation was determined in the absence of PDGF. […] Radioactivity incorporated into DNA was separated from unincorporated ^3 H-thymidine by precipitation with […] ice-cold TCA for 10 minutes. […] Six ml of cocktail (Ready Safe, Beckman) was added and radioactivity quantified in a Beckman liquid scintillation counter model LS6000 SC.

[3] = LD50 of A10 in BALB/c mice; settings: mouse, in vivo, ip
Procedure: All animals wee observed for 7 to 14 days after the last dose was administered. The LD50 was calculated from a plot of % mortality versus dose (log M) using a four parameter logistic equation.

Compound: Cc1oncc1C(=O)Nc1ccc(C(F)(F)F)cc1 [Compound A10, 5-methylisoxazole-4 carboxylic acid-(4-trifluromethyl)-anilide]
- reduction of PDGF-R phosphorylation ([1]; 200 mM A10, 20 ng/ml PDGF-BB): reduced PDGF-R phosphorylation below that occurring in the absence of PDGF-BB stimulation
- PDGF stimulated receptor phosphorylation ([1]; increasing concentrations (50, 100)): reduced PDGF stimulated receptor phosphorylation
- PDGF-stimulated DNA synthesis [2]: decreased PDGF-stimulated DNA synthesis in both types of cells, however a greater effect was seen in human T98G glioblastoma cells
- LD50 [3]: 94 mg/kg

Source: patent US6331555A, “Treatment of platelet derived growth factor related disorders such as cancers” (priority 1999, dated 2001)
